According to US20260253701A1, “EEG BIOMARKERS FOR ALPHA5 PAM DOSAGE DETERMINATION AND THERAPEUTIC MONITORING” (priority 2022, published 2026):

Columns and labels:
[1] = tested on: chronically stressed mice; settings: mouse, in vivo; cited from earlier work
α5 subunit receptors [2] = target: T1, α5 subunit receptors (Homo sapiens, UniProt P18507+P31644); settings: 3 μM; higher levels more strongly target α1, α2, & α3 subunit receptors; cited from earlier work
Target sequence in this assay (P28472 26-473): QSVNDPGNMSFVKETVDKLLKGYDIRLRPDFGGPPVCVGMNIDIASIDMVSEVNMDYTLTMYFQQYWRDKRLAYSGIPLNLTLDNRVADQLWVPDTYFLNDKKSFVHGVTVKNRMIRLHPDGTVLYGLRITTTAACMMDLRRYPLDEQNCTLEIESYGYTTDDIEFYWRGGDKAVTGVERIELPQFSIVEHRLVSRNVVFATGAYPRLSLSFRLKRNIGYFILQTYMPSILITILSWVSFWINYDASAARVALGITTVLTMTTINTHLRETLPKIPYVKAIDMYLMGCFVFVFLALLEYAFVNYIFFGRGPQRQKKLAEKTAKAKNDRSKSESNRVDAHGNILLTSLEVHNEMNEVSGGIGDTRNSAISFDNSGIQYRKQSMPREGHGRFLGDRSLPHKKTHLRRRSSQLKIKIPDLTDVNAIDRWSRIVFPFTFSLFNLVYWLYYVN
Target sequence in this assay (P18507 40-467): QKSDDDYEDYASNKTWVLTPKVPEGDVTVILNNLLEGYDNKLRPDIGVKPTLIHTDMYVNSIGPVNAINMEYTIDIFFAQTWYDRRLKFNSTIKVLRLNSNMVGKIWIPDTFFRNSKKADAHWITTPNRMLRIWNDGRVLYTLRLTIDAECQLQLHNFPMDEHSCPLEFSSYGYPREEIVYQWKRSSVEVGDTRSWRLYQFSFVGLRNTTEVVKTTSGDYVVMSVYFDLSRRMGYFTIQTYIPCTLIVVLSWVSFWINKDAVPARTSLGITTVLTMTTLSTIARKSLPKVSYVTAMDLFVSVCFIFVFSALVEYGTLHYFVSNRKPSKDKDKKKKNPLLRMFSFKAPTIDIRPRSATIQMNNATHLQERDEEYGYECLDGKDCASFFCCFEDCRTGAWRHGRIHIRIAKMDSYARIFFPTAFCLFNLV
Target sequence in this assay (P31644 32-462): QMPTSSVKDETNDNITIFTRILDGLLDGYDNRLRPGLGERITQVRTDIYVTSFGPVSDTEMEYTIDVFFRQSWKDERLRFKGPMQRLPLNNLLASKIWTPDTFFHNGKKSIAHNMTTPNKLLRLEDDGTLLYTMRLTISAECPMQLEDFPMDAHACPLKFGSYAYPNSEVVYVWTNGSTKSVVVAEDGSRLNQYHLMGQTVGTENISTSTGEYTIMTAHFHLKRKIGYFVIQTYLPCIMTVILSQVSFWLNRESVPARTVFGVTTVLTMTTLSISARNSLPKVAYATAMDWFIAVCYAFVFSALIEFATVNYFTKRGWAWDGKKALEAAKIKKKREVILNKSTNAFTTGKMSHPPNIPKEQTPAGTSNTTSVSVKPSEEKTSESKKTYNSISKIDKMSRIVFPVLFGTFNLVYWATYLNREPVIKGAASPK

α5 subunit receptors [3] = target: T1, α5 subunit receptors; assay: whole-cell voltage-clamp recordings of tonic inhibition current in human cortical L2/3 Pyr neurons; type: cell-based; parameters: Neocortical tissue resected during tumor resection and anterior temporal lobectomy; from tissue; host or cells: human neocortical slices (resected frontal/temporal lobe tissue), L2/3 pyramidal neurons
Text: Electrophysiology Data. We used whole-cell voltage-clamp recordings of baseline tonic inhibition current and tonic inhibition current during exposure to α5-PAM in human cortical L2/3 Pyr neurons (10 cells: 9 cells from 3 male subjects, 1 cell from 1 subject) from patients undergoing a standard anterior temporal lobectomy or tumor resection from the frontal or temporal lobe. Written informed consent was obtained from all participants, in accordance with the Declaration of Helsinki and the University Health Network Research Ethics board.
The data was collected using surgery resection, solutions, tissue preparation, and recording equipment described in Chameh et al., 2021 Nature Communications, 12(1), 2497 and Yao et al., 2022 Cell Reports, 38(2). Neocortical tissue resected during tumor resection and anterior temporal lobectomy was immediately submerged in ice-cold (~4° C.) cutting solution and transferred to a recording chamber within 20 minutes.
For recordings, slices were transferred to a recording chamber mounted on a fixed-stage upright microscope (Axioskop 2 FS MOT; Carl Zeiss, Germany). Slices were continually perfused at 4 ml/min with standard aCSF at 32-34° C. Whole-cell patch-clamp recordings were obtained using a Multiclamp 700 A amplifier, Axopatch 200B amplifier, and pClamp 9.2 and pClamp 10.6 data acquisition software (Axon instruments, Molecular Devices, USA). Subsequently, electrical signals were digitized at 20 kHz using a 1320X digitizer. For voltage-clamp recordings of tonic current, low-resistance patch pipettes (2-4 MΩ) were filled with a CsCl-based solution containing (in mM) 140 CsCl, 10 EGTA, 10 Hepes, 2 MgCl2, 2 Na2ATP, 0.3 GTP, and 5 QX314 adjusted to pH 7.3 with CsOH. The junction potential was calculated to be 4.3 mV and the holding potential was-74.3 mV after junction potential correction. In this configuration, 5 μM GABA, 25 μM AP5, 10 μM CNQX, and 10 μM CGP-35348 were first applied to generate larger GABA-dependent currents and assess baseline tonic inhibition currents while also blocking AMPA, NMDA, and GABAB mediated currents. […]
Target sequence in this assay (P31644 32-462): as above
Target sequence in this assay (P28472 26-473, further chain): as the sequence (P28472 26-473) above
Target sequence in this assay (P18507 40-467): as the sequence (P18507 40-467) above

For C#Cc1ccc2c(c1)C(c1ccccc1F)=N[C@H](C)c1c(C(=O)N(C)C)ncn1-2 [α5-PAM, GL-II-73], the “effect in chronically stressed mice” value [1] is listed as “pro-cognitive effects”, the subunit selectivity (α5 subunit receptors [2]) is listed as “selectively targeting α5 subunit receptors” and the “mean amplitude of tonic inhibitory current relative to endogenous current in picrotoxin condition” value (α5 subunit receptors [3]; 3 μM with 5 μM GABA, ± standard error of the mean, n=10 cells, baseline 65.86±10.28) is listed as 95.28±14.52 pA. For the same molecule, the “tonic inhibition current magnitude” value (α5 subunit receptors [3]; therapeutically relevant dose (3 μM) of α5-PAM in addition to GABA, mean±standard deviation, GABA alone −65.9±30.8) was −95.3±43.6 pA and the “increase in current magnitude” value (α5 subunit receptors [3]; α5-PAM in addition to GABA vs GABA alone) was 52%.
